Data as given in US20150105252A1, “SUBSTITUTED PYRAZOLES AS HERBICIDES” (E I DU PONT DE NEMOURS AND COMPANY, priority 2013, published 2015).

How the values were obtained:
[1] = system: crabgrass, large; assay: Test A preemergence; format: in vivo, Digitaria sanguinalis; conditions: preemergence
Method in brief: (§1)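 Pre- and postemergence greenhouse test; loam+sand; cpd in non-phytotox. solvent/surfactant; post at 1–2 leaf, 2–10 cm; visual score ~10 d, 0 = none, 100 = complete control.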

[2] = system: morningglory; assay: Test A preemergence; format: in vivo, Ipomoea spp.; conditions: preemergence
Method in brief: as §1

[3] = system: pigweed; assay: Test A preemergence; format: in vivo, Amaranthus retroflexus; conditions: preemergence
Method in brief: as §1

[4] = system: morningglory; assay: Test A postemergence; format: in vivo, Ipomoea spp.
Method in brief: as §1

[5] = system: pigweed; assay: Test A postemergence; format: in vivo, Amaranthus retroflexus
Method in brief: as §1

[6] = system: wheat; assay: Test A postemergence; format: in vivo, Triticum aestivum
Method in brief: as §1

[7] = system: corn; assay: Test A postemergence; format: in vivo, Zea mays
Method in brief: as §1

[8] = system: rice; assay: Test B flood; format: in vivo, Oryza sativa; conditions: 250 g ai/ha, visual rating on 0 to 100 scale (0 no effect, 100 complete control), 13 to 15 days
Method in brief: (§2)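 Flooded-pot test: compound dosed into 3 cm of standing water above soil when plants had two leaves. Visual control ratings (0–100) versus untreated plants after 13–15 d.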

[9] = system: ducksalad; assay: Test B flood; format: in vivo, Heteranthera limosa; conditions: 250 g ai/ha, visual rating on 0 to 100 scale (0 no effect, 100 complete control), 13 to 15 days
Method in brief: as §2

[10] = system: blackgrass; assay: Test C preemergence; format: in vivo, Alopecurus myosuroides; conditions: for Plant response rating (scale of 0 to 100), Blackgrass: Preemergence, 250 g ai/ha; for Blackgrass plant response rating / Plant response rating, Blackgrass: preemergence; for Plant response rating, Blackgrass: 62 g ai/ha, scale 0 to 100, 0 = no effect, 100 = complete control
Method in brief: (§3)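 Seeds sown in loam–sand blend and treated preemergence with test chemicals in non-phytotoxic solvent with surfactant; postemergence plants in peat-based medium, treated at 2–18 cm (1- to 4-leaf stage). Greenhouse 13 to 15 days, then visual rating versus controls, 0 (no effect) to 100 (complete control).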

[11] = system: ryegrass, Italian; assay: Test C preemergence; format: in vivo, Lolium multiflorum; conditions: for Plant response rating (scale of 0 to 100), Ryegrass, Italian: Preemergence, 250 g ai/ha; for Ryegrass, Italian plant response rating / Plant response rating, Ryegrass, Italian: preemergence; for Plant response rating, Ryegrass, Italian: 62 g ai/ha, scale 0 to 100, 0 = no effect, 100 = complete control
Method in brief: as §3

[12] = system: corn; assay: Test C preemergence; format: in vivo, Zea mays; conditions: for Plant response rating (scale of 0 to 100), Corn: Preemergence, 250 g ai/ha; for Corn plant response rating / Plant response rating, Corn: preemergence; for Plant response rating, Corn: 62 g ai/ha, scale 0 to 100, 0 = no effect, 100 = complete control
Method in brief: as §3

[13] = system: foxtail, giant; assay: Test C preemergence; format: in vivo, Setaria faberii; conditions: for Plant response rating (scale of 0 to 100), Foxtail, Giant: Preemergence, 250 g ai/ha; for Foxtail, Giant plant response rating / Plant response rating, Foxtail, Giant: preemergence; for Plant response rating, Foxtail, Giant: 62 g ai/ha, scale 0 to 100, 0 = no effect, 100 = complete control
Method in brief: as §3

[14] = system: ragweed; assay: Test C preemergence; format: in vivo, Ambrosia elation; conditions: for Plant response rating (scale of 0 to 100), Ragweed: Preemergence, 250 g ai/ha; for Ragweed plant response rating / Plant response rating, Ragweed: preemergence; for Plant response rating, Ragweed: 62 g ai/ha, scale 0 to 100, 0 = no effect, 100 = complete control
Text: Seeds of plant species selected from blackgrass (Alopecurus myosuroides), ryegrass, Italian (Italian ryegrass, Lolium multiflorum), wheat (winter wheat, Triticum aestivum), galium (catchweed bedstraw, Galium aparine), corn (Zea mays), crabgrass, large (large crabgrass, Digitaria sanguinalis), foxtail, giant (giant foxtail, Setaria faberii), johnsongrass (Sorghum halepense), lambsquarters (Chenopodium album), morningglory (Ipomoea coccinea), nutsedge, yellow (yellow nutsedge, Cyperus esculentus), pigweed (redroot pigweed, Amaranthus retroflexus), ragweed (common ragweed, Ambrosia elation), soybean (Glycine max), barnyardgrass (Echinochloa crus-galli), oilseed rape (Brassica napus), waterhemp (common waterhemp, Amaranthus rudis), oat, wild (wild oat, Avena fatua), kochia (Kochia scoparia), Surinam grass (Brachiaria decumbens), foxtail, green (green foxtail, Setaria viridis), goosegrass (Eleusine indica), bromegrass, downy (downy bromegrass, Bromus tectorum), nightshade (eastern black nightshade, Solanum ptycanthum), cocklebur (common cocklebur, Xanthium strumarium), cupgrass, woolly (woolly cupgrass, Eriochloa villosa), bermudagrass (Cynodon dactylon), sunflower, (common oilseed sunflower, Helianthus annuus), Russian thistle (Salsola kali), and velvetleaf (Abutilon theophrasti) were planted into a blend of loam soil and sand and treated preemergence with test chemicals formulated in a non-phytotoxic solvent mixture which included a surfactant.
At the same time, plants selected from these crop and weed species and also chickweed (common chickweed, Stellaria media), canarygrass (littleseed canarygrass, Phalaris minor), and deadnettle (henbit deadnettle, Lamium amplexicaule), were planted in pots containing Redi-Earth® planting medium (Scotts Company, 14111 Scottslawn Road, Marysville, Ohio 43041) comprising spaghnum peat moss, vermiculite, wetting agent and starter nutrients and treated with postemergence applications of test chemicals formulated in the same manner. Plants ranged in height from 2 to 18 cm (1- to 4-leaf stage) for postemergence treatments. Treated plants and controls were maintained in a greenhouse for 13 to 15 days, after which time all species were compared to controls and visually evaluated. Plant response ratings, summarized in Table C, are based on a scale of 0 to 100 where 0 is no effect and 100 is complete control. A dash (-) response means no test result.

[15] = system: waterhemp; assay: Test C preemergence; format: in vivo, Amaranthus rudis; conditions: for Plant response rating (scale of 0 to 100), Waterhemp: Preemergence, 250 g ai/ha; for Waterhemp plant response rating / Plant response rating, Waterhemp: preemergence; for Plant response rating, Waterhemp: 62 g ai/ha, scale 0 to 100, 0 = no effect, 100 = complete control
Method in brief: as §3

[16] = 125 g ai/ha, visual injury, 0 to 100 scale, approx. 10 days
[17] = 500 g ai/ha, visual injury after approx. 10 days, 0 to 100 scale (0 no effect, 100 complete control)
[18] = Postemergence, 500 g ai/ha, visual rating after approx. 10 days, 0 to 100 scale (0 no effect, 100 complete control)
[19] = postemergence, 125 g ai/ha, about 10 days, visual rating on 0 to 100 scale (0 no effect, 100 complete control)
[20] = 31 g ai/ha, visual rating, scale 0 to 100 (0 no effect, 100 complete control), 13 to 15 days
[21] = 125 g ai/ha, scale 0 to 100, 0 is no effect, 100 is complete control

| Structure (SMILES) | Crabgrass, Large plant response rating [1, 16] | Crabgrass, Large plant response rating [1, 17] | Morningglory plant response rating [2, 16] | Morningglory plant response rating [2, 17] | Pigweed plant response rating [3, 16] | Pigweed plant response rating [3, 17] | Morningglory plant response rating [4, 18] | Morningglory plant response rating [4, 19] | Pigweed plant response rating [5, 18] | Pigweed plant response rating [5, 19] | Wheat plant response rating [6, 18] | Wheat plant response rating [6, 19] | Corn plant response rating [7, 18] | Corn plant response rating [7, 19] | Plant response rating, Rice [8] | Plant response rating, Ducksalad [9] | Plant response rating (scale of 0 to 100), Blackgrass [10] | Blackgrass plant response rating [10, 20] | Plant response rating, Blackgrass ([10]; 13 to 15 days) | Blackgrass plant response rating [10, 21] | further results |
| --- | --- | --- | --- | --- | --- | --- | --- | --- | --- | --- | --- | --- | --- | --- | --- | --- | --- | --- | --- | --- | --- |
| CCCc1cc(C(=O)NCC)nn1Cc1ccnc(C(F)(F)F)c1 [Compound 95] | 100 | 100 | 100 | 100 | 100 | 100 | 100 | 90 | 100 | 100 | 90 | 80 | 100 | 80 | 20 | 85 | 100 | 100 | 100 | 100 | Plant response rating (scale of 0 to 100), Ryegrass, Italian [11]: 100; Ryegrass, Italian plant response rating [11, 20]: 50; Plant response rating, Ryegrass, Italian ([11]; 13 to 15 days): 85; Ryegrass, Italian plant response rating [11, 21]: 95; Plant response rating (scale of 0 to 100), Corn [12]: 95; Corn plant response rating [12, 20]: 35; Plant response rating, Corn ([12]; 13 to 15 days): 50; Corn plant response rating [12, 21]: 80; Plant response rating (scale of 0 to 100), Foxtail, Giant [13]: 100; Foxtail, Giant plant response rating [13, 20]: 100; Plant response rating, Foxtail, Giant ([13]; 13 to 15 days): 100; Foxtail, Giant plant response rating [13, 21]: 100; Plant response rating (scale of 0 to 100), Ragweed [14]: 100; Ragweed plant response rating [14, 20]: 80; Plant response rating, Ragweed ([14]; 13 to 15 days): 95; Ragweed plant response rating [14, 21]: 100; Plant response rating (scale of 0 to 100), Waterhemp [15]: 100; Waterhemp plant response rating [15, 20]: 100; Plant response rating, Waterhemp ([15]; 13 to 15 days): 100; Waterhemp plant response rating [15, 21]: 100 |
| CCc1cc(C(=O)NC2CC2)nn1Cc1ccnc(OC(F)F)c1 [Compound 98] | 100 | 100 | 100 | 100 | 100 | 100 | 90 | 90 | 100 | 100 | 80 | 70 | 90 | 80 | 0 | 70 | 100 | 70 | 100 | 100 | Plant response rating (scale of 0 to 100), Ryegrass, Italian [11]: 100; Ryegrass, Italian plant response rating [11, 20]: 30; Plant response rating, Ryegrass, Italian ([11]; 13 to 15 days): 80; Ryegrass, Italian plant response rating [11, 21]: 95; Plant response rating (scale of 0 to 100), Corn [12]: 95; Corn plant response rating [12, 20]: 35; Plant response rating, Corn ([12]; 13 to 15 days): 45; Corn plant response rating [12, 21]: 90; Plant response rating (scale of 0 to 100), Foxtail, Giant [13]: 100; Foxtail, Giant plant response rating [13, 20]: 100; Plant response rating, Foxtail, Giant ([13]; 13 to 15 days): 100; Foxtail, Giant plant response rating [13, 21]: 100; Plant response rating (scale of 0 to 100), Ragweed [14]: 100; Ragweed plant response rating [14, 20]: 95; Plant response rating, Ragweed ([14]; 13 to 15 days): 100; Ragweed plant response rating [14, 21]: 100; Plant response rating (scale of 0 to 100), Waterhemp [15]: 100; Waterhemp plant response rating [15, 20]: 98; Plant response rating, Waterhemp ([15]; 13 to 15 days): 98; Waterhemp plant response rating [15, 21]: 100 |
| CCOc1cc(C(=O)NCC(F)(F)F)nn1Cc1ccnc(C(F)(F)F)c1 [Compound 104] | 100 | 100 | 100 | 100 | 100 | 100 | 100 | 100 | 100 | 100 | 70 | 70 | 100 | 90 | 40 | 0 | 90 | 85 | 90 | 90 | Plant response rating (scale of 0 to 100), Ryegrass, Italian [11]: 95; Ryegrass, Italian plant response rating [11, 20]: 80; Plant response rating, Ryegrass, Italian ([11]; 13 to 15 days): 90; Ryegrass, Italian plant response rating [11, 21]: 95; Plant response rating (scale of 0 to 100), Corn [12]: 98; Corn plant response rating [12, 20]: 40; Plant response rating, Corn ([12]; 13 to 15 days): 65; Corn plant response rating [12, 21]: 98; Plant response rating (scale of 0 to 100), Foxtail, Giant [13]: 100; Foxtail, Giant plant response rating [13, 20]: 100; Plant response rating, Foxtail, Giant ([13]; 13 to 15 days): 100; Foxtail, Giant plant response rating [13, 21]: 100; Plant response rating (scale of 0 to 100), Ragweed [14]: 100; Ragweed plant response rating [14, 20]: 98; Plant response rating, Ragweed ([14]; 13 to 15 days): 100; Ragweed plant response rating [14, 21]: 100; Plant response rating (scale of 0 to 100), Waterhemp [15]: 100; Waterhemp plant response rating [15, 20]: 100; Plant response rating, Waterhemp ([15]; 13 to 15 days): 100; Waterhemp plant response rating [15, 21]: 100 |
